From US20060135608A1, “Eicosapentaenoic acid (epa) for treating anorexia nervosa (an) and bulimia” (priority 2002, published 2006)

Key:
patient with AN = assay: Example 1: case of a patient with AN treated with 1 g/d ethyl-EPA; type: in vivo, human
From the text: A patient presented with a 14-month history of dieting and eating difficulties. These had started with dietary restrictions and excessive exercise and proceeded to laxative abuse. Two months prior to being first seen they had stopped taking all solid food. When first seen their weight was still within the normal range for their height at 55 kg for 1.63 m. However, they had lost 8 kg since stopped solid food, had stopped menstruation and begun to grow the fine, downy “lanugo” hair over their body which is common in AN.
They were treated with a standard AN regime of family therapy, psychotherapy and dietary advice. This was ineffective and over the next two months they lost around 10 kg which necessitated their admission to hospital. At this point they were extremely distressed and unable or unwilling to maintain a conversation. Despite their emaciation they were still preoccupied with being fat and wanted to lose more weight. Their heart rate was very slow and their blood glucose was low, signs of starvation. They were treated as an emergency with compulsory naso-gastric feeding with parental consent. After two weeks of this therapy they had gained a little over 2 kg and begun to eat small amounts by mouth. At the end of this time their family removed them from hospital against medical advice.
Over the following ten days they lost a further 5 kg in weight to 42 kg. Their doctors believed that their life was in danger and so obtained an order for compulsory admission to hospital. At the start of this admission they were treated with 1 g/d of ethyl-eicosapentaenoate (E-EPA). This transformed their response to treatment. […] Their mood and cognitive functions improved and they became normally communicative. Instead of being obsessed by weight and food to the exclusion of everything else, they became interested in all aspects of their life and their future. […] After 12 weeks they were discharged from hospital and their body weight stabilised around a normal 62-65 kg. They took a summer job which they enjoyed and completed successfully and enrolled in a college course.

[1] = tested on: patients with anorexia nervosa; assay: Example 2: seven patients with anorexia nervosa or related disorders treated with 1 g/day E-EPA; type: in vivo, human
From the text: Seven patients underwent treatment of their disorders using EPA. FIGS. 1-5 summarise the results of this study. Participants were given 1 g/day ethyl-EPA (E-EPA) for an initial 3 month period. The E-EPA provided by Laxdale Limited was over 95% pure EPA. If the patient and family wished to continue beyond 3 months, the dose was continued, and in some cases increased beyond 1 g/day. All patients were offered the standard treatment available at the local district health services, including full psychiatric and physical assessment, regular monitoring of physical parameters. Parameters monitored on a monthly basis included the patient's weight and height. BMI, and average body weight and height (ABW) were calculated using Weight 4 Height software (based on 1990 British reference data by the Child Growth Foundation). The following standard psychometric measures were used: EDI-2, BDI-2, CGAS, CGI-S, Morgan-Russell, and patient Likert Scales (including problems, general and improvement).

[2] = 3 months after discharge, scored 0 to 12
[3] = Patient 2, 1-year follow-up, dosage increased to 2 g/day in later stages
[4] = Patient 5, after three months, 1 g/day
[5] = Patient 6, end of three months, 1 g/day

`CC/C=C\C/C=C\C/C=C\C/C=C\C/C=C\CCCC(=O)OCC` [E-EPA, ethyl-eicosapentaenoate] was tested, and the body image perceptions (patient with AN; 1 g/d, over 12 weeks) was “lost their distorted body image perceptions”, the “mood and cognitive functions” value (patient with AN; 1 g/d, over 12 weeks) was “improved” and the eating (patient with AN; 1 g/d, over the following weeks) was “began to eat normally”. The Wt kg (patient with AN; 2nd hospital discharge on EPA (12 weeks, 1 g/d), 42 at 2nd hospital admission) was 57 kg, the “MR-O (Morgan-Russell overall scale)” value (patient with AN; 2nd hospital discharge on EPA, scored 0 to 12, 12 completely normal, 1.2 at 2nd admission) was 12.0 and the “MR-A (food intake)” value (patient with AN; 2nd hospital discharge on EPA, scored 0 to 12, 0.0 at 2nd admission) was 12.0. For the same compound, the “MR-E (overall social-economic-health state)” value (patient with AN; 2nd hospital discharge on EPA, scored 0 to 12, 1.0 at 2nd admission) was 9.0, the “MR-C (mental state)” value (patient with AN; 2nd hospital discharge on EPA, scored 0 to 12, 4.0 at 2nd admission) was 8.0 and the Wt kg (patient with AN; 3 months after discharge) was 63 kg. For the same compound, the “MR-A (food intake)” value (patient with AN; [2]) was 12.0, the “MR-C (mental state)” value (patient with AN; [2]) was 12.0 and the “MR-E (overall social-economic-health state)” value (patient with AN; [2]) was 11.0. For the same compound, the “MR-O (Morgan-Russell overall scale)” value (patient with AN; [2]) was 12.0, the body weight stabilised (patient with AN; after discharge from hospital at 12 weeks) was 62 to 65 kg and the body weight (patient with AN; within 12 weeks of 1 g/d, 42 kg at start) was 57 kg. The ABW [1, 3] was 88.3%, the BMI [1, 3] was 17.74 and the clinical response ([1]; Patient 2, after restart of E-EPA and zinc treatment) was “significant improvement”. For the same compound, the “lowest ABW” value ([1]; Patient 2, after stopping E-EPA at 6 months) was 73%, the clinical response ([1]; Patient 2, by three months, 1 g/day) was “partially improved” and the ABW ([1]; Patient 2, three months, 1 g/day, 84.4% after NG feeding) was 86.34%. The growth in height ([1]; Patient 3, in three months, 1 g/day) was 3 cm, the mental state ([1]; Patient 3, three months, 1 g/day) was “significantly improved” and the BMI ([1]; Patient 3, three months, 1 g/day, 13.3 at referral) was 15.5. For the same compound, the ABW ([1]; Patient 3, three months, 1 g/day, 74.4% at referral) was 81%, the psychometric measures ([1]; Patient 4, 1 g/day) was “marked improvement” and the “weight stabilised, ABW” value ([1]; Patient 4, 1 g/day for a total of 6 months, 83.9% at discharge from paediatric hospital) was “around 85.5%”. For the same compound, the mood ([1]; Patient 4, after two months, 1 g/day) was “dramatic improvement”, the ABW ([1]; Patient 4, within three months after they stopped taking the E-EPA) was 80% and the panic attacks ([1]; Patient 5, E-EPA increased to 4 g/day) was “helped with their panic attacks”. The anxiety [1, 4] was “did not improve”, the “weight, eating habits and mood” value [1, 4] was “dramatic improvement” and the BMI ([1]; Patient 5, after three months, 1 g/day, 17.15 before) was 20. For the same compound, the ABW ([1]; Patient 5, after three months, 1 g/day, 77% before) was 90%, the anorexic symptoms [1, 5] was “complete resolution” and the growth in height [1, 5] was 3 cm. For the same compound, the BMI ([1]; Patient 6, end of three months, 1 g/day, 17.57 at first presentation) was 19.1, the ABW ([1]; Patient 6, end of three months, 1 g/day, 87% at first presentation) was 93.6% and the clinical response ([1]; Patient 6, within the first 4-6 weeks, 1 g/day) was “improved dramatically”. The growth in height ([1]; Patient 7, during three months treatment) was 1.5 cm, the BMI ([1]; Patient 7, end of three months treatment, 1 g/day, 14.8 before) was 16.21 and the ABW ([1]; Patient 7, end of three months treatment, 1 d/day, 78.21 before) was 84.5%. For the same compound, the “clinical response (appetite, mood, self-esteem, psychometric measures)” value ([1]; Patient No 1, after 2 months of treatment) was “remarkable improvement”, the BMI ([1]; Patient No 1, after three months of 1 g E-EPA, 16.9 at hospital admission) was 22.8 and the ABW ([1]; Patient No 1, after three months of 1 g E-EPA, 83.6% at hospital admission) was 111%. The relapse of anorexia ([1]; Patient No 1, one-year follow-up, E-EPA stopped after three months) was “no return of their anorexia”, the “cases with complete recovery” value ([1]; of the seven patients) was “three” and the “cases with partial improvement” value ([1]; of the seven patients) was “four”. For the same compound, the growth response ([1]; patients who had growth delay, during the time of the E-EPA treatment) was “significant growth” and the “deterioration whilst taking the E-EPA” value ([1]; seven patients) was “no patient deteriorated”.
